Measured values published in patent publication US12502374B2, “Composition for preventing, alleviating, or treating inflammatory disease containing isookanin or salt thereof as active ingredient” (BioSpectrum, Inc., priority 2020, dated 2025).

Columns and labels:
recombinant kallikrein-5 = target: T1, recombinant kallikrein-5 (Homo sapiens, UniProt Q9Y337); assay: Kallikrein-5 enzymatic activity, fluorescent substrate Boc-Val-Pro-Arg-AMC; format: biochemical; details: 10 and 20 ppm; FIG. 2
T1 construct: purchased R&D Systems, USA
T1 sequence (Q9Y337 23-293): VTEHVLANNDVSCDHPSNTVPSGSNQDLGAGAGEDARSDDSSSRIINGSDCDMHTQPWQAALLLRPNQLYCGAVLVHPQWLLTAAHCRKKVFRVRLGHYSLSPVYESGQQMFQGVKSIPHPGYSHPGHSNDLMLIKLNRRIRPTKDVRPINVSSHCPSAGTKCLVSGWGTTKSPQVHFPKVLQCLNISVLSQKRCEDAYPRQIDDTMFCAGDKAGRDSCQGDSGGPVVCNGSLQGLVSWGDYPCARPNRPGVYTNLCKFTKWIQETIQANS
Experimental: To measure the enzymatic activity of kallikrein-5 which is a trypsin-like proteolytic enzyme present in skin keratinocytes, recombinant kallikrein-5 (R&D Systems, USA) was allowed to react with the fluorescently labeled substrate Boc-Val-Pro-Arg-AMC (R&D Systems, USA), and the enzymatic activity was measured. 50 μl of 2 μg/ml recombinant kallikrein-5 was treated with different concentrations (10 and 20 ppm) of isookanin and then allowed to react at room temperature for 10 minutes, and then 50 μl of 800 μM kallikrein-5 substrate was added thereto, followed by measurement in kinetic mode at 380 nm/480 nm fluorescence for 5 minutes. As a positive control, the trypsin inhibitor Leupeptin (Sigma Aldrich, USA) was used, and as a negative control, non-treated recombinant kallikrein was used. For evaluation of the degree of activity, based on the value obtained by subtracting the lowest fluorescence value from the highest fluorescence value among the measurement values under each condition, the fluorescence value of the group treated with isookanin was compared with the fluorescence value of the group not treated with isookanin, and the results are shown in FIG. 2.

TLR-2 = target: T2, TLR-2 (Homo sapiens, UniProt O60603); assay: Chitin-induced TLR-2 activation, HEK-Blue TLR2 SEAP reporter cells; format: cell-based; details: 1 hour pretreatment, then chitin for 12 hours; FIG. 3
T2 construct: host or cells: HEK-Blue TLR2 cell line
Experimental: The anti-inflammatory effect of isookanin by inhibition of TLR-2 activation was measured. The HEK-Blue™ TLR2 cell line (InvivoGen, USA) co-transfected with TLR-2 and SEAP (secreted embryonic alkaline phosphatase) reporter genes was used. The SEAP reporter gene contains transcription factors NF-kB and AP-1 binding sites, and thus when NF-kB and AP-1 are activated by TLR-2 activation, SEAP is produced and secreted extracellularly. Specifically, the HEK-Blue™ TLR2 cell line was cultured in DMEM containing 10% FBS, and then seeded in a 48-well plate at a density of 1×10^5 cells per well, and pretreated with isookanin for 1 hour. Next, the cells were treated with chitin (Carbosynth, USA) and cultured again for 12 hours. Here, chitin is a component of demodex and is known as a major trigger of inflammatory rosacea. […] 20 μl of the culture supernatant of the cells cultured for 12 hours was taken, mixed with 80 μl of QUANTI-Blue™ (InvivoGen, USA), and then incubated at 37° C. for 1 hour. The degree of TLR-2 activation was measured by comparing the degree of color development caused by the reaction between Quanti-Blue and extracellularly secreted SEAP, and the results are shown in FIG. 3.

PGE2 = assay: UV-induced PGE2 secretion in human epidermal keratinocytes (ELISA); format: cell-based; details: 1, 5 and 10 ppm, UVB 20 mJ/cm^2, FIG. 6
Experimental: Human epidermal keratinocytes (HEKs) were seeded in a 24-well microplate at a density of about 2×10^5 cells per well, and cultured in an incubator for 24 hours at 37° C. under 5% CO2. Thereafter, the cells were treated with each of 1, 5, and 10 ppm of isookanin, and then irradiated with UV light (UVB 20 mJ/cm^2), and then the cell culture medium was collected. Next, the secretion level of PGE2 was measured using an ELISA kit. As a negative control (−), human keratinocytes not treated with isookanin and UV light (UVB) were used.

HMEC-1 = assay: PGE2-induced vascular endothelial cell proliferation (MTT assay); format: cell-based, human; details: 1 hour pretreatment; 20 μM PGE2, 48 hours; FIG. 8
Experimental: Human microvascular […] cells (HMEC-1, ATCC, USA) were cultured in MCDB131 medium (Thermo Fisher, USA) containing 10 ng/ml EGF, 1 μg/mL cortisol, 10 mM glutamine and 10% FBS, and then seeded in a 24-well plate at a density of 5×10^4 cells per well and cultured in an incubator for 24 hours at cultured at 37° C. under 5% CO2. After culturing, each well was pretreated with each concentration of isookanin for 1 hour, and then treated with 20 μM PGE2 and cultured again for 48 hours. After 48 hours of culturing, the degree of vascular cell proliferation was measured using MTT assay, and the results are shown in FIG. 8.

human skin = assay: Human skin safety, repeated insult patch test (Finn chamber); format: in vivo; details: 30 healthy adults
Experimental: In order to confirm that the isookanin according to the present invention is safe for human skin, a skin safety verification test was performed. To this end, a repeated insult patch test was conducted.
Nourishing creams containing the isookanin in amounts of 0.1%, 0.5% and 1%, respectively, were prepared. Specifically, a water phase containing purified water, triethanolamine and propylene glycol was dissolved by heating to 70° C. and then emulsified by adding a solution obtained by dissolving beeswax, liquid paraffin, an oil component, an emulsifier and a preservative by heating to 70° C. After completion of emulsification, the solution was cooled to 45° C., and the isookanin was added thereto in amounts of 0.1%, 0.5% and 1% and dispersed therein, followed by cooling to 30° C. As the content of the isookanin was increased from 0.1% to 0.5% and 1%, the content of liquid paraffin was decreased from 9.91% to 9.51% and 9.01%, respectively, thereby preparing nourishing creams.
Using the nourishing creams prepared as described above, a repeated insult patch test was conducted on the upper arm areas of 30 healthy adults every other day for a total of 9 times for 24 hours per time to determine whether the isookanin irritated the skin.
The patch test was performed using a Finn chamber (Epitest Ltd., Finland). 15 μl of each of the external skin preparations was dropped into the chamber, and then the patch test was performed.
[Equation 1] Average degree of reaction=[[(reaction index×degree of reaction)/(total number of subjects×highest score (4)]×100]÷number of tests (9)
In the degree of reaction, ± represents a score of 1, + represents a score of 2, and ++ represents a score of 4. When the average degree of reaction is less than 3, the corresponding composition is determined to be safe.

T2 sequence (O60603 21-784): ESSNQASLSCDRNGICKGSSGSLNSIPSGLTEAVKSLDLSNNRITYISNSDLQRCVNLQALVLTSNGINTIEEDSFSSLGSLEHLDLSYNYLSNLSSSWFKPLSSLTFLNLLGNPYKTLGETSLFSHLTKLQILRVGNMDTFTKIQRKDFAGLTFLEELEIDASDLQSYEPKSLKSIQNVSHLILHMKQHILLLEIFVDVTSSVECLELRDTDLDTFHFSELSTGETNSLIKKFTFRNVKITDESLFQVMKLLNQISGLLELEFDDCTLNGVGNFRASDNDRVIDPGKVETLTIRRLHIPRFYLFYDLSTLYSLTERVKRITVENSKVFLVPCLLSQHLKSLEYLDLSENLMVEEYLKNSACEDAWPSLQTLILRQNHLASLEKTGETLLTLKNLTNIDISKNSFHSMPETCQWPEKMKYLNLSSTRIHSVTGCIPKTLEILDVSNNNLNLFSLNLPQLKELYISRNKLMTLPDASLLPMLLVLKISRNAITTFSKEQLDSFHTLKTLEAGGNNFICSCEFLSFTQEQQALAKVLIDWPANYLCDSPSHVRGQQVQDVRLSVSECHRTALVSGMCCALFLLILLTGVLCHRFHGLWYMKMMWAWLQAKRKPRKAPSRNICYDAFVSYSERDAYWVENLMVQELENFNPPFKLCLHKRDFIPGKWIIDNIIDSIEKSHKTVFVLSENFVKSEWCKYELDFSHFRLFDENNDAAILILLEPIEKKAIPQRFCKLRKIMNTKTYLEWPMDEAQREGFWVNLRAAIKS

O=C1C[C@@H](c2ccc(O)c(O)c2)Oc2c1ccc(O)c2O [isookanin] was tested, and the “inhibition of kallikrein-5 activity” value (recombinant kallikrein-5) was “inhibitory effect on kallikrein-5 activity in a concentration-dependent manner”, the “inhibition of chitin-induced activation of TLR-2 signaling” value (TLR-2) was “effectively inhibiting the chitin-induced activation of TLR-2 signaling” and the “inhibition of UV-induced PGE2 expression” value (PGE2) was “inhibiting the expression of PGE2 in a concentration-dependent manner”. For the same compound, the “inhibition of human vascular endothelial cell proliferation induced by PGE2” value (HMEC-1) was “effectively inhibiting human vascular endothelial cell proliferation induced by PGE2”, the “Average degree of reaction” value (human skin; upper arm, 24 hours per patch, Equation 1, less than 3 is determined to be safe) was at most 3 and the “skin safety conclusion of the repeated insult patch test” value (human skin; nourishing creams with 0.1%, 0.5% and 1% isookanin) was “safe substance that shows no remarkable cumulative irritation aspect”.
